Assay results reported in paper PMC4303209, “A novel phosphatidylinositol 3-kinase (PI3K) inhibitor directs a potent FOXO-dependent, p53-independent cell cycle arrest phenotype characterized by the differential induction of a subset of FOXO-regulated genes” (Breast Cancer Research : BCR, 2014).

Tested on: MCF-7 breast cancer cells
Experiment: Microarray gene expression analysis (Agilent whole human genome 4 x 44K; compound vs DMSO, LIMMA log2 fold change)
Type: cell-based

SMILES: Oc1cccc(-c2nc(N3CCOCC3)c3oc4ncccc4c3n2)c1 [PI-103]
- BCL11B log2FC (Apoptosis genes, Gene 64919): 0.237
- MRPL41 log2FC (Apoptosis genes, Gene 64975): -0.467
- PINK1 log2FC (Apoptosis genes, Gene 65018): 1.918
- PRAMEF1 log2FC (Apoptosis genes, Gene 65121): 0.050
- PRAMEF2 log2FC (Apoptosis genes, Gene 65122): 0.021
- UBE2Z log2FC (Apoptosis genes, Gene 65264): -0.420
- TMEM109 log2FC (Apoptosis genes, Gene 79073): -0.554
- CHAC1 log2FC (Apoptosis genes, Gene 79094): 0.106
- TNIP2 log2FC (Apoptosis genes, Gene 79155): -0.233
- PLEKHF1 log2FC (Apoptosis genes, Gene 79156): -0.466
- THOC6 log2FC (Apoptosis genes, Gene 79228): -0.153
- BCL2L14 log2FC (Apoptosis genes, Gene 79370): -0.153
- BIRC7 log2FC (Apoptosis genes, Gene 79444): -0.015
- ELMO3 log2FC (Apoptosis genes, Gene 79767): -0.530
- SLTM log2FC (Apoptosis genes, Gene 79811): 0.713
- ZC3H12A log2FC (Apoptosis genes, Gene 80149): -1.248
- RNF34 log2FC (Apoptosis genes, Gene 80196): -0.370
- ELL3 log2FC (Apoptosis genes, Gene 80237): 1.045
- CPEB4 log2FC (Apoptosis genes, Gene 80315): 0.553
- COL18A1 log2FC (Apoptosis genes, Gene 80781): 0.023
- SGPP1 log2FC (Apoptosis genes, Gene 81537): -0.248
- SHARPIN log2FC (Apoptosis genes, Gene 81858): -0.118
- APH1B log2FC (Apoptosis genes, Gene 83464): -0.243
- RASSF5 log2FC (Apoptosis genes, Gene 83593): -0.099
- SOX7 log2FC (Apoptosis genes, Gene 83595): -0.149
- BCL2L12 log2FC (Apoptosis genes, Gene 83596): -0.182
- ITCH log2FC (Apoptosis genes, Gene 83737): 0.449
- CDCA7 log2FC (Apoptosis genes, Gene 83879): -0.061
- TATDN1 log2FC (Apoptosis genes, Gene 83940): 0.554
- TM2D1 log2FC (Apoptosis genes, Gene 83941): 0.055
- OBSCN log2FC (Apoptosis genes, Gene 84033): 0.392
- TRAF7 log2FC (Apoptosis genes, Gene 84231): -0.080
- RHBDD1 log2FC (Apoptosis genes, Gene 84236): -0.425
- TCHP log2FC (Apoptosis genes, Gene 84260): 0.283
- ZDHHC16 log2FC (Apoptosis genes, Gene 84287): -0.316
- ING5 log2FC (Apoptosis genes, Gene 84289): -0.961
- AKT1S1 log2FC (Apoptosis genes, Gene 84335): -0.610
- CARD11 log2FC (Apoptosis genes, Gene 84433): 0.185
- SYVN1 log2FC (Apoptosis genes, Gene 84447): 0.495
- ZC3H8 log2FC (Apoptosis genes, Gene 84524): 1.375
- FNDC1 log2FC (Apoptosis genes, Gene 84624): -0.079
- CARD6 log2FC (Apoptosis genes, Gene 84674): 0.035
- HINT2 log2FC (Apoptosis genes, Gene 84681): 0.122
- BEX2 log2FC (Apoptosis genes, Gene 84707): 0.833
- TNS4 log2FC (Apoptosis genes, Gene 84951): -1.157
- ATG4D log2FC (Apoptosis genes, Gene 84971): -0.288
- SCRT2 log2FC (Apoptosis genes, Gene 85508): -0.600
- WNT3A log2FC (Apoptosis genes, Gene 89780): -0.352
- FGD3 log2FC (Apoptosis genes, Gene 89846): 0.895
- UNC5A log2FC (Apoptosis genes, Gene 90249): -0.397
- BMF log2FC (Apoptosis genes, Gene 90427): 2.201
- MTDH log2FC (Apoptosis genes, Gene 92140): 0.308
- TIMM50 log2FC (Apoptosis genes, Gene 92609): -0.337
- TP53INP1 log2FC (Apoptosis genes, Gene 94241): 0.890
- EGLN2 log2FC (Apoptosis genes, Gene 112398): 0.419
- EGLN3 log2FC (Apoptosis genes, Gene 112399): -0.441
- PNMA5 log2FC (Apoptosis genes, Gene 114824): 0.611
- SLC5A11 log2FC (Apoptosis genes, Gene 115584): 0.170
- TWIST2 log2FC (Apoptosis genes, Gene 117581): -0.613
- RFFL log2FC (Apoptosis genes, Gene 117584): -0.445
- FGD4 log2FC (Apoptosis genes, Gene 121512): 0.646
- RXFP2 log2FC (Apoptosis genes, Gene 122042): -0.012
- DCUN1D3 log2FC (Apoptosis genes, Gene 123879): -0.855
- ACVR1C log2FC (Apoptosis genes, Gene 130399): 0.413
- IL31RA log2FC (Apoptosis genes, Gene 133396): 0.067
- JMY log2FC (Apoptosis genes, Gene 133746): 1.008
- UNC5D log2FC (Apoptosis genes, Gene 137970): 0.036
- DYNLL2 log2FC (Apoptosis genes, Gene 140735): -0.654
- PSMA8 log2FC (Apoptosis genes, Gene 143471): 0.074
- TICAM1 log2FC (Apoptosis genes, Gene 148022): -0.334
- BNIPL log2FC (Apoptosis genes, Gene 149428): -0.016
- ZSWIM2 log2FC (Apoptosis genes, Gene 151112): -0.00651
- DAB2IP log2FC (Apoptosis genes, Gene 153090): 0.029
- SLC5A8 log2FC (Apoptosis genes, Gene 160728): -0.019
- PTCRA log2FC (Apoptosis genes, Gene 171558): -0.229
- HIGD2A log2FC (Apoptosis genes, Gene 192286): -0.188
- FLCN log2FC (Apoptosis genes, Gene 201163): 0.778
- HIPK1 log2FC (Apoptosis genes, Gene 204851): -0.082
- UNC5B log2FC (Apoptosis genes, Gene 219699): -0.706
- RNF152 log2FC (Apoptosis genes, Gene 220441): -0.049
- FGD2 log2FC (Apoptosis genes, Gene 221472): -0.083
- MPV17L log2FC (Apoptosis genes, Gene 255027): -0.431
- TMEM23 log2FC (Apoptosis genes, Gene 259230): 0.281
- MAGI3 log2FC (Apoptosis genes, Gene 260425): 0.313
- BLOC1S2 log2FC (Apoptosis genes, Gene 282991): 0.288
- NRBP2 log2FC (Apoptosis genes, Gene 340371): -0.00243
- NANOS3 log2FC (Apoptosis genes, Gene 342977): 0.015
- AMIGO2 log2FC (Apoptosis genes, Gene 347902): 0.458
- C6orf120 log2FC (Apoptosis genes, Gene 387263): -0.573
- GDF6 log2FC (Apoptosis genes, Gene 392255): -0.024
- MYO18A log2FC (Apoptosis genes, Gene 399687): -0.274
- PRAMEF3 log2FC (Apoptosis genes, Gene 401940): -0.384
- ADIPOQ log2FC (Apoptosis genes, Gene 414149): -0.263
- PIM3 log2FC (Apoptosis genes, Gene 415116): 0.644
- LGALS7 log2FC (Apoptosis genes, Gene 653499): -0.246
- CARD9 log2FC (Apoptosis genes, Gene 728489): -0.430
- PDCD6 log2FC (Apoptosis genes, Gene 728613): -0.273
- RRN3 log2FC (Apoptosis genes, Gene 730092): 0.522
- CD24 log2FC (Apoptosis genes, Gene 100133941): 0.117
- ACVR1 log2FC (Gene 90, cell cycle genes): 0.55
- ACVR1B log2FC (Gene 91, cell cycle genes): -0.21
- ADCYAP1 log2FC (Gene 116, cell cycle genes): 0.0422
- AHR log2FC (Gene 196, cell cycle genes): 0.78
- AIF1 log2FC (Gene 199, cell cycle genes): -0.0247
- AK1 log2FC (Gene 203, cell cycle genes): -0.25
- AKT1 log2FC (Gene 207, cell cycle genes): -0.58
- AKT2 log2FC (Gene 208, cell cycle genes): -0.41
- ALOX15B log2FC (Gene 247, cell cycle genes): -0.00234
- ANK3 log2FC (Gene 288, cell cycle genes): 0.62
- ANXA1 log2FC (Gene 301, cell cycle genes): 0.80
- ANXA11 log2FC (Gene 311, cell cycle genes): -0.16
- APBB1 log2FC (Gene 322, cell cycle genes): 0.36
- APBB2 log2FC (Gene 323, cell cycle genes): -0.18
- APEX1 log2FC (Gene 328, cell cycle genes): 0.12
- BIRC2 log2FC (Gene 329, cell cycle genes): -0.34
- APP log2FC (Gene 351, cell cycle genes): 0.33
- ARF6 log2FC (Gene 382, cell cycle genes): -0.57
- RHOB log2FC (Gene 388, cell cycle genes): -0.10
- RHOC log2FC (Gene 389, cell cycle genes): -0.37
- ARL2 log2FC (Gene 402, cell cycle genes): 0.09
- ARL3 log2FC (Gene 403, cell cycle genes): 0.06
- ASNS log2FC (Gene 440, cell cycle genes): -0.39
- BACH1 log2FC (Gene 571, cell cycle genes): 0.78
- BARD1 log2FC (Gene 580, cell cycle genes): 0.34
- BBS4 log2FC (Gene 585, cell cycle genes): 0.84
- CCND1 log2FC (Gene 595, cell cycle genes): -1.53
- BCL2 log2FC (Gene 596, cell cycle genes): -0.34
- BCL2L1 log2FC (Gene 598, cell cycle genes): -0.92
- BCR log2FC (Gene 613, cell cycle genes): -0.81
- BID log2FC (Gene 637, cell cycle genes): -0.26
- BMP2 log2FC (Gene 650, cell cycle genes): -0.23
- BMP7 log2FC (Gene 655, cell cycle genes): -0.32
- DST log2FC (Gene 667, cell cycle genes): 0.55
- BRCA1 log2FC (Gene 672, cell cycle genes): 0.74
- BRDT log2FC (Gene 676, cell cycle genes): -0.0232
- BUB1 log2FC (Gene 699, cell cycle genes): 0.59
- CALM1 log2FC (Gene 801, cell cycle genes): 0.07
- CALR log2FC (Gene 811, cell cycle genes): -0.16
- CAMK2A log2FC (Gene 815, cell cycle genes): 0.03
- CAMK2D log2FC (Gene 817, cell cycle genes): 0.78
- CAMK2G log2FC (Gene 818, cell cycle genes): 0.66
- CASP2 log2FC (Gene 835, cell cycle genes): -0.76
- CAV2 log2FC (Gene 858, cell cycle genes): 0.93
- RUNX3 log2FC (Gene 864, cell cycle genes): -0.36
- CCNA2 log2FC (Gene 890, cell cycle genes): -0.08
- CCNB1 log2FC (Gene 891, cell cycle genes): -0.13
- CCNC log2FC (Gene 892, cell cycle genes): -0.10
- CCND2 log2FC (Gene 894, cell cycle genes): -1.30
- CCND3 log2FC (Gene 896, cell cycle genes): -0.73
- CCNE1 log2FC (Gene 898, cell cycle genes): -0.63
- CCNG1 log2FC (Gene 900, cell cycle genes): 0.46
- CCNG2 log2FC (Gene 901, cell cycle genes): 3.91
- CD28 log2FC (Gene 940, cell cycle genes): 0.0361
- CDC5L log2FC (Gene 988, cell cycle genes): 0.88
- CDC6 log2FC (Gene 990, cell cycle genes): -0.98
- CDC20 log2FC (Gene 991, cell cycle genes): -0.31
- CDC25A log2FC (Gene 993, cell cycle genes): -2.03
